Measurements from patent publication US11155517B2, “4-substituted phenylamine derivatives and their use to protect crops by fighting undesired phytopathogenic micoorganisms” (PI INDUSTRIES LTD., priority 2016, dated 2021).

Legend:
Type in all cases: cell-based
[1] = tested on: Pyricularia oryzae; test: microbe, parasite or virus in culture; settings: 168 h, read-out: % control compared to the untreated check (radial growth)
[2] = tested on: Rhizoctonia solani; test: Rhizoctonia solani (rice sheath blight/potato black scurf) in vitro test, radial growth on Potato Dextrose Agar; settings: 168 h, 300 ppm, seven days, 25° C., read-out: % control compared to the untreated check (radial growth)
[3] = tested on: Botrytis cinerea; test: Botrytis cinerea (gray mold) in vitro test, radial growth on Potato Dextrose Agar; settings: 168 h, 300 ppm, seven days, 22° C., read-out: % (control) compared to the untreated check (radial growth)
[4] = tested on: Alternaria solani; test: Alternaria solani (early blight of tomato/potato) in vitro test, radial growth on Potato Dextrose Agar; settings: 168 h, 300 ppm, seven days, 25° C., read-out: % control compared to the untreated check (radial growth)
[5] = tested on: Colletotrichum capsici; test: Colletotrichum capsici (anthracnose) in vitro test, radial growth on Potato Dextrose Agar; settings: Colletotrichum truncatum, 168 h; 300 ppm; seven days, 25° C.; read-out: % control compared to the untreated check (radial growth)
[6] = tested on: Septoria lycopersici; test: Septoria lycopersici (leaf spot of tomato) in vitro test, radial growth on Potato Dextrose Agar; settings: 168 h, seven days, 25° C., read-out: % control compared to the untreated check (radial growth)
[7] = tested on: Fusarium culmorum; test: Fusarium culmorum (foot rot of cereals) in vitro test, radial growth on Potato Dextrose Agar; settings: Fusarium culmorum, 168 h, read-out: % control compared to the untreated check (radial growth)

| SMILES | inhibition of growth at 300 ppm [1] [%] | inhibition of growth at 300 ppm [2] [%] | inhibition of growth at 300 ppm [3] [%] | inhibition of growth at 300 ppm [4] [%] | inhibition of growth at 300 ppm [5] [%] | inhibition of growth at 300 ppm [6] [%] | inhibition of growth at 300 ppm [7] [%] |
| --- | --- | --- | --- | --- | --- | --- | --- |
| CCN(C)C=Nc1cc(C)c(Cc2cccc(OC)c2)cc1Cl [Compound 70, N′-(2-chloro-4-(3-methoxybenzyl)-5-methylphenyl)-N-ethyl-N-methylformimidamide] | > 75 | > 80 | > 80 | > 75 | > 80 | > 70 | 75 |
| Cc1cc(N=CN(C)C(C)C)c(C)cc1Cc1ccccc1Cl [Compound 82, N′-(4-(2-chlorobenzyl)-2,5-dimethylphenyl)-N-isopropyl-N-methylformimidamide] | > 75 | > 80 | > 80 | > 75 | > 80 | > 70 | 75 |
| C=CCN(C)C=Nc1cc(C)c(Cc2ccccc2F)cc1C [Compound 83, N-allyl-N′-(4-(2-fluorobenzyl)-2,5-dimethylphenyl)-N-methylformimidamide] | > 75 | > 80 | > 80 | > 75 | > 80 | > 70 | 75 |
| C=CCN(C)C=Nc1cc(C)c(Cc2ccccc2Cl)cc1C [Compound 84, N-allyl-N′-(4-(2-chlorobenzyl)-2,5-dimethylphenyl)-N-methylformimidamide] | > 75 | > 80 | > 80 | > 75 | > 80 | > 70 | 75 |
| CCN(C)C=Nc1cc(C)c(Cc2ccc(SC(F)(F)F)cc2)cc1C [Compound 92, N′-(2,5-dimethyl-4-(4-((trifluoromethyl)thio)benzyl)phenyl)-N-ethyl-N-methylformimidamide] | > 75 | > 80 | > 80 | > 75 | > 80 | > 70 | 75 |
| CCN(C)C=Nc1cc(C)c(Cc2ccc(Cl)c(C)c2)cc1C [Compound 108, N′-(4-(4-chloro-3-methylbenzyl)-2,5-dimethylphenyl)-N-ethyl-N-methylformimidamide] | > 75 | > 80 | > 80 | > 75 | > 80 | > 70 | 75 |
| CCN(C)C=Nc1cc(C)c(Cc2ccc(F)c(C)c2)cc1C [Compound 109, N-ethyl-N′-(4-(4-fluoro-3-methylbenzyl)-2,5-dimethylphenyl)-N-methylformimidamide] | > 75 | > 80 | > 80 | > 75 | > 80 | > 70 | 75 |
| CCN(C)C=Nc1cc(C)c(Cc2ccc(C)c(C)c2)cc1C [Compound 113, N′-(4-(3,4-dimethylbenzyl)-2,5-dimethylphenyl)-N-ethyl-N-methylformimidamide] | > 75 | > 80 | > 80 | > 75 | > 80 | > 70 | 75 |
| CCN(C)C=Nc1cc(C)c(Cc2cc(C)cc(C)c2)cc1C [Compound 114, N′-(4-(3,5-dimethylbenzyl)-2,5-dimethylphenyl)-N-ethyl-N-methylformimidamide] | > 75 | > 80 | > 80 | > 75 | > 80 | > 70 | 75 |
| CCN(C)C=Nc1cc(C)c(Cc2ccc(OC(F)(F)F)cc2)cc1C [Compound 117, N′-(2,5-dimethyl-4-(4-(trifluoromethoxy)benzyl)phenyl)-N-ethyl-N-methylformimidamide] | > 75 | > 80 | > 80 | > 75 | > 80 | > 70 | 75 |
| CCN(C)C=Nc1cc(C)c(Cc2cccc(Cl)c2F)cc1C [Compound 118, N′-(4-(3-chloro-2-fluorobenzyl)-2,5-dimethylphenyl)-N-ethyl-N-methylformimidamide] | > 75 | > 80 | > 80 | > 75 | > 80 | > 70 | 75 |
| CCN(C)C=Nc1cc(C)c(Cc2cc(F)cc(F)c2)cc1Cl [Compound 129, N′-(2-chloro-4-(3,5-difluorobenzyl)-5-methylphenyl)-N-ethyl-N-methylformimidamide] | > 75 | > 80 | > 80 | > 75 | > 80 | > 70 | 75 |
| CCN(C)C=Nc1cc(C)c(Cc2ccc(F)c(F)c2)cc1Cl [Compound 138, N′-(2-chloro-4-(3,4-difluorobenzyl)-5-methylphenyl)-N-ethyl-N-methylformimidamide] | > 75 | > 80 | > 80 | > 75 | > 80 | > 70 | 75 |
| CCN(C)C=Nc1cc(C)c(Cc2ccc(C)c(F)c2)cc1Cl [Compound 139, N′-(2-chloro-4-(3-fluoro-4-methylbenzyl)-5-methylphenyl)-N-ethyl-N-methylformimidamide] | > 75 | > 80 | > 80 | > 75 | > 80 | > 70 | 75 |
| CCN(C)C=Nc1cc(C)c(Cc2ccc(Cl)c(C(F)(F)F)c2)cc1C [Compound 142, N′-(4-(4-chloro-3-(trifluoromethyl)benzyl)-2,5-dimethylphenyl)-N-ethyl-N-methylformimidamide] | > 75 | > 80 | > 80 | > 75 | > 80 | > 70 | 75 |
| CCN(C)C=Nc1cc(C)c(Cc2cc(F)ccc2Cl)cc1C [Compound 143, N′-(4-(2-chloro-5-fluorobenzyl)-2,5-dimethylphenyl)-N-ethyl-N-methylformimidamide] | > 75 | > 80 | > 80 | > 75 | > 80 | > 70 | 75 |
| CCN(C)C=Nc1cc(C)c(Cc2ccc(C)c(F)c2)cc1C [Compound 144, N-ethyl-N′-(4-(3-fluoro-4-methylbenzyl)-2,5-dimethylphenyl)-N-methylformimidamide] | > 75 | > 80 | > 80 | > 75 | > 80 | > 70 | 75 |
| CCN(C)C=Nc1cc(C)c(Cc2ccc(Cl)c(OC(F)(F)F)c2)cc1C [Compound 145, N′-(4-(4-chloro-3-(trifluoromethoxy)benzyl)-2,5-dimethylphenyl)-N-ethyl-N-methylformimidamide] | > 75 | > 80 | > 80 | > 75 | > 80 | > 70 | 75 |
| CCN(C)C=Nc1cc(C)c(Cc2ccc(F)c(F)c2)cc1C [Compound 146, N′-(4-(3,4-difluorobenzyl)-2,5-dimethylphenyl)-N-ethyl-N-methylformimidamide] | > 75 | > 80 | > 80 | > 75 | > 80 | > 70 | 75 |
| CCN(C)C=Nc1cc(C)c(Cc2ccccc2Br)cc1C [Compound 154, N′-(4-(2-bromobenzyl)-2,5-dimethylphenyl)-N-ethyl-N-methylformimidamide] | > 75 | > 80 | > 80 | > 75 | > 80 | > 70 | 75 |
